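Assay format: 96-well plates, 48-hour exposure. Here, GI50 denotes the concentration required for 50% inhibition of growth. TGI: concentration producing complete growth inhibition.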

Data on 10 compounds can be found in PubChem BioAssay (NCI).

Some test systems named below: SNB-75 CNS; OVCAR-3 ovarian; COLO 205 colon; SK-OV-3 ovarian; OVCAR-4 ovarian; HCT-116 colon; HCT-15 colon; SK-MEL-28 melanoma; NCI-H460 lung; HOP-62 NSCLC.
Common to all, as to assay: growth of human tumour cells (NCI), 48 h

For the compound `CC1(O)CC2(O)C=CC3=C(C(=O)c4cccc(O)c4C3=O)C2(O)C(=O)C1O` (stereo not drawn), the TGI with SNB-75 CNS is 19.1 µM; with OVCAR-3 ovarian, 5.19 µM; with COLO 205 colon it was 0.436 µM; with SK-OV-3 ovarian it was 28.5 µM; with OVCAR-4 ovarian, 2.86 µM; in the assay on HCT-116 colon, 2.05 µM. The TGI was found to be 2.98 µM in the assay with HCT-15 colon, 3.2 µM with SK-MEL-28 melanoma, 34.3 µM in the assay on NCI-H460 lung and 36.4 µM with HOP-62 NSCLC.

As for `CCOC(=O)C(=Cc1cc(OC)ccc1OC)C(=O)OCC`, the TGI with SNB-75 CNS came out at 5.95 µM; in the assay on OVCAR-3 ovarian it was 22.5 µM; in the assay on COLO 205 colon, 17.2 µM; in the assay on SK-OV-3 ovarian it was 29.9 µM; in the assay with OVCAR-4 ovarian it was 21.6 µM; in the assay on HCT-116 colon, 27.5 µM. Besides, the TGI was 22 µM with HCT-15 colon, 17.1 µM in the assay on SK-MEL-28 melanoma, above 100 µM with NCI-H460 lung and 23.6 µM in the assay on HOP-62 NSCLC.

Take `Cc1ccc(N=Nc2c(N)nn(-c3ccccc3)c2N)cc1`: the GI50 with SNB-75 CNS was 2.3 µM; in the assay on OVCAR-3 ovarian, 0.705 µM; with COLO 205 colon, 1.21 µM; in the assay with SK-OV-3 ovarian it was 2.63 µM; in the assay on OVCAR-4 ovarian, above 40.7 µM; with HCT-116 colon, 0.542 µM. Further, the GI50 is 0.612 µM in the assay on HCT-15 colon, 8.97 µM with SK-MEL-28 melanoma, 1.07 µM in the assay on NCI-H460 lung and 2.49 µM with HOP-62 NSCLC. The TGI in the assay with SNB-75 CNS was above 78.3 µM; with OVCAR-3 ovarian, 3.58 µM; in the assay with COLO 205 colon, above 26.9 µM; in the assay with SK-OV-3 ovarian, above 100 µM; in the assay on OVCAR-4 ovarian, above 100 µM; in the assay with HCT-116 colon, above 100 µM. Further, the TGI with HCT-15 colon, with SK-MEL-28 melanoma and with NCI-H460 lung was above 100 µM in each case.

Consider `CC[N+]1(C)CCC(O)(c2ccccc2)C(C(=O)c2ccccc2)C1` (stereo not drawn), for which the TGI is 24.3 µM with SNB-75 CNS; 45.7 µM with OVCAR-3 ovarian; 36.7 µM in the assay with COLO 205 colon; 32.1 µM in the assay with SK-OV-3 ovarian; 25.9 µM in the assay on OVCAR-4 ovarian; 34.7 µM in the assay with HCT-116 colon. Further, the TGI in the assay with HCT-15 colon amounted to 21.8 µM; with SK-MEL-28 melanoma, 30.9 µM; with NCI-H460 lung, 43 µM; with HOP-62 NSCLC, 48.2 µM.

Regarding `C=CC(=O)N1CCC([C@@H]2CCNc3c(C(N)=O)c(-c4ccc(Oc5ccccc5)cc4)nn32)CC1`, the GI50 in the assay on SNB-75 CNS was 5.39 µM; in the assay with OVCAR-3 ovarian it was 11 µM; with COLO 205 colon, 22.1 µM; in the assay with SK-OV-3 ovarian, 0.338 µM; with OVCAR-4 ovarian, 13.5 µM; with HCT-116 colon, 17.1 µM. Further, the GI50 with HCT-15 colon is 15.3 µM; in the assay with SK-MEL-28 melanoma it was 15.6 µM; in the assay with NCI-H460 lung, 29.8 µM; with HOP-62 NSCLC, 16.9 µM. The TGI with SNB-75 CNS is 30.6 µM; in the assay on OVCAR-3 ovarian, 32 µM; in the assay with COLO 205 colon, above 74.3 µM; in the assay with SK-OV-3 ovarian, 14.2 µM; in the assay with OVCAR-4 ovarian, 97.2 µM; in the assay on HCT-116 colon, 39.3 µM. In addition, the TGI in the assay on HCT-15 colon was 46.5 µM; in the assay with SK-MEL-28 melanoma, 30.6 µM; with NCI-H460 lung it was above 89.7 µM; with HOP-62 NSCLC, above 75.1 µM.

With `Cc1ccc2c(c1)SC(c1cc3c(cc1Br)OCO3)S2` (stereo not drawn), the TGI was 6.73 µM in the assay on SNB-75 CNS; above 31.6 µM in the assay with OVCAR-3 ovarian; above 31.6 µM with COLO 205 colon; above 31.6 µM in the assay with SK-OV-3 ovarian; above 31.6 µM in the assay on OVCAR-4 ovarian; above 31.6 µM with HCT-116 colon. Also, the TGI in the assay on HCT-15 colon, with SK-MEL-28 melanoma, in the assay with NCI-H460 lung and in the assay on HOP-62 NSCLC was above 31.6 µM each time.

On to `O=C(O)CCCSc1nc2ccccc2s1`, for which the TGI in the assay with SNB-75 CNS, in the assay with OVCAR-3 ovarian, in the assay with COLO 205 colon, in the assay on SK-OV-3 ovarian, with OVCAR-4 ovarian and with HCT-116 colon was above 100 µM in each case. Further, the TGI in the assay on HCT-15 colon, with SK-MEL-28 melanoma, in the assay with NCI-H460 lung and in the assay with HOP-62 NSCLC was above 100 µM in each case.

For `COc1cc([C@@H]2c3cc4c(cc3[C@@H](NCc3ccccc3)C3COC(=O)[C@@H]32)OCO4)cc(OC)c1O` (stereo partly drawn), the TGI with SNB-75 CNS was 23.8 µM; in the assay with OVCAR-3 ovarian, 42.5 µM; with COLO 205 colon, above 89 µM; in the assay with SK-OV-3 ovarian, above 58.9 µM; in the assay on OVCAR-4 ovarian it was above 75.5 µM; in the assay on HCT-116 colon, above 100 µM. The TGI in the assay with HCT-15 colon was 33.5 µM; in the assay with SK-MEL-28 melanoma it was above 100 µM; in the assay on NCI-H460 lung, 15.8 µM; in the assay on HOP-62 NSCLC, 9.63 µM.

Regarding `O=C(NC(=S)NNC(=S)NNc1ccccc1)c1ccccc1`, the GI50 with SNB-75 CNS is 3.09 µM; in the assay with OVCAR-3 ovarian, 18.2 µM; with COLO 205 colon, 9.81 µM; in the assay on SK-OV-3 ovarian, 44.2 µM; in the assay on OVCAR-4 ovarian it was 11 µM; in the assay with HCT-116 colon, 4.05 µM. Further, the GI50 in the assay with HCT-15 colon is 5.21 µM; in the assay with SK-MEL-28 melanoma, 10.6 µM; with NCI-H460 lung, 3.72 µM; with HOP-62 NSCLC, 4.7 µM. Besides, the TGI in the assay with SNB-75 CNS, with OVCAR-3 ovarian, with COLO 205 colon, in the assay on SK-OV-3 ovarian, in the assay with OVCAR-4 ovarian and in the assay on HCT-116 colon was above 100 µM in each case. Moreover, the TGI in the assay on HCT-15 colon, with SK-MEL-28 melanoma, in the assay on NCI-H460 lung and in the assay on HOP-62 NSCLC was above 100 µM throughout.

Consider `CCOC(=O)Cn1c(C)c(/C=N/NC(=O)c2cc3c(ccc4ccccc43)o2)c2ccccc21`, for which the GI50 in the assay with SNB-75 CNS is 0.244 µM; in the assay on OVCAR-3 ovarian, 0.319 µM; in the assay with COLO 205 colon, 0.401 µM; in the assay on SK-OV-3 ovarian, 0.804 µM; in the assay with OVCAR-4 ovarian, 1.36 µM; with HCT-116 colon, 0.338 µM. For the same compound, the GI50 was 0.408 µM with HCT-15 colon, 1.66 µM in the assay on SK-MEL-28 melanoma, 0.383 µM in the assay with NCI-H460 lung and 0.554 µM with HOP-62 NSCLC. Further, the TGI in the assay with SNB-75 CNS was 1.42 µM; in the assay with OVCAR-3 ovarian, 1.87 µM; in the assay on SK-OV-3 ovarian it was 9.44 µM; in the assay on OVCAR-4 ovarian, 9.27 µM; in the assay on HCT-116 colon, 1.46 µM; in the assay with HCT-15 colon it was 5.45 µM. The TGI in the assay on SK-MEL-28 melanoma stood at 30.5 µM; with NCI-H460 lung it was 1.79 µM; with HOP-62 NSCLC it was 4.79 µM.
